In ChEMBL document CHEMBL3351363 (J Med Chem, 2014):

How the values were obtained:
[1] = molecular target: Muscarinic acetylcholine receptor M3 (Homo sapiens, UniProt P20309); experiment: Displacement of [3H]NMS from human M3 receptor expressed in CHO cells by microplate scintillation counting based radioligand binding assay; format: cell-based
[2] = molecular target: T1, Muscarinic acetylcholine receptor M1 (Homo sapiens, UniProt P11229); experiment: Displacement of [3H]NMS from human M1 receptor expressed in CHO cells by microplate scintillation counting based radioligand binding assay; format: cell-based
T1 sequence (P11229 whole entry): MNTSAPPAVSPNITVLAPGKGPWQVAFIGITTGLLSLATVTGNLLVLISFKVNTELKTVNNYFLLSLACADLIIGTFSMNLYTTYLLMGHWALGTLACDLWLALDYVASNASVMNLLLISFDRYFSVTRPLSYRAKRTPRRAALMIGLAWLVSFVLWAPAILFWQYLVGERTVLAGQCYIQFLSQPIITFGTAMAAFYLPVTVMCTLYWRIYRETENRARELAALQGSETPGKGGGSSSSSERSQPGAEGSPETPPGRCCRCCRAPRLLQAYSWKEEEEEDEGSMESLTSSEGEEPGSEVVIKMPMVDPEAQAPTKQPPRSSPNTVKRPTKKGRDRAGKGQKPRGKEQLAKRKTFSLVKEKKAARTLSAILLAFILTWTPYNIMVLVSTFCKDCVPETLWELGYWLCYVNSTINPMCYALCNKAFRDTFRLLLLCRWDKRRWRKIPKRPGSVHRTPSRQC

[3] = molecular target: T2, Muscarinic acetylcholine receptor M4 (Homo sapiens, UniProt P08173); experiment: Displacement of [3H]NMS from human M4 receptor expressed in CHO cells by microplate scintillation counting based radioligand binding assay; format: cell-based
T2 sequence (P08173 whole entry): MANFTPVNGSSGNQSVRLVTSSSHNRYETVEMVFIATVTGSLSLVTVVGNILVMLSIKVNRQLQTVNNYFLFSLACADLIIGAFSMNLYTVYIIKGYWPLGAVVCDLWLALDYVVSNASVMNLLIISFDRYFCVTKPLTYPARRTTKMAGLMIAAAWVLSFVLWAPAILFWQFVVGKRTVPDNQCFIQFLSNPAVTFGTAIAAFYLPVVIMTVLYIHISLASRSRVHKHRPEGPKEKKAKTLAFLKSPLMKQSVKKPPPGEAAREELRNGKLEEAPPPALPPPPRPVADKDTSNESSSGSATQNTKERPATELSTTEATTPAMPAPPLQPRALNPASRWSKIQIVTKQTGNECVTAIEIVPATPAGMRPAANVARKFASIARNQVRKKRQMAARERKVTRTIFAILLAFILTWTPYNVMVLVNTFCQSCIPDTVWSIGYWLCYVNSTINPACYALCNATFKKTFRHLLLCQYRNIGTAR

[4] = molecular target: T3, Muscarinic acetylcholine receptor M5 (Homo sapiens, UniProt P08912); experiment: Displacement of [3H]NMS from human M5 receptor expressed in CHO cells by microplate scintillation counting based radioligand binding assay; format: cell-based
T3 sequence (P08912 whole entry): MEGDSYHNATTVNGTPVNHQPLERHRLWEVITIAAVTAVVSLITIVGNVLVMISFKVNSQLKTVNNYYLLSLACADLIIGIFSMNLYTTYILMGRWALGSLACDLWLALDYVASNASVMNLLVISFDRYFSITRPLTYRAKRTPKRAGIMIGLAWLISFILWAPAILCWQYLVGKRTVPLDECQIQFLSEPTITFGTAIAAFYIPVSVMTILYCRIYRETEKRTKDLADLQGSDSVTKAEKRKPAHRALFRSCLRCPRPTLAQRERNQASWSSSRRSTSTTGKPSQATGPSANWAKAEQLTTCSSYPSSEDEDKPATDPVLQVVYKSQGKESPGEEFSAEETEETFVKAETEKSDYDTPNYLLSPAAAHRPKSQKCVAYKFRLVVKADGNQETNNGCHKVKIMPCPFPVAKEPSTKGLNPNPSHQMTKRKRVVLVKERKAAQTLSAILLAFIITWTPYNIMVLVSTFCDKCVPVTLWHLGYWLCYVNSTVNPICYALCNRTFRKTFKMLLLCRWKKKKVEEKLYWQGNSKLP

[5] = molecular target: T4, Muscarinic acetylcholine receptor M2 (Homo sapiens, UniProt P08172); experiment: Displacement of [3H]NMS from human M2 receptor expressed in CHO cells by microplate scintillation counting based radioligand binding assay; format: cell-based
T4 sequence (P08172 whole entry): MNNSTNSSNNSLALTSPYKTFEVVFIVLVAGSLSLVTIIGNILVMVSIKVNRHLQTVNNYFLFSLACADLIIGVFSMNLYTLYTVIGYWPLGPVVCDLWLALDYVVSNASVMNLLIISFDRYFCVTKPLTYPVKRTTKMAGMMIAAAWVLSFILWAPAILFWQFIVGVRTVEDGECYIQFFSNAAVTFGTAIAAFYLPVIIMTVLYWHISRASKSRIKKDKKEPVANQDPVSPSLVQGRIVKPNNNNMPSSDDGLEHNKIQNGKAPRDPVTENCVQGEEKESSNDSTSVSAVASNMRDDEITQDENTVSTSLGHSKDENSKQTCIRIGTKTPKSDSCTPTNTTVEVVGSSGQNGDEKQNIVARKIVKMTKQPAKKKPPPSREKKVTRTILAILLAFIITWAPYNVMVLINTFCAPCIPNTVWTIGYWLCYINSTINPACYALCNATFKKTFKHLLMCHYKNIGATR

[6] = molecular target: T5, Muscarinic acetylcholine receptor M1 (Homo sapiens) (UniProt P11229); experiment: Positive modulatory activity at human M1 receptor expressed in HEK293T cells assessed as effect on carbachol-induced response by BRET based Gq protein activation assay relative to untreated control; format: cell-based; conditions: HEK-293T
T5 sequence (whole entry): T1 sequence (P11229 whole entry)

[7] = molecular target: T6, Muscarinic acetylcholine receptor M4 (Homo sapiens) (UniProt P08173); experiment: Antagonist activity at human M4 receptor expressed in HEK293T cells assessed as inhibition of carbachol-induced response by beta-arrestin engagement assay relative to untreated control; format: cell-based; conditions: HEK-293T
T6 sequence (whole entry): T2 sequence (P08173 whole entry)

[8] = molecular target: T5, Muscarinic acetylcholine receptor M1 (Homo sapiens); experiment: Positive modulatory activity at human M1 receptor expressed in HEK293T cells assessed as effect on carbachol-induced response by BRET based Gq protein engagement assay relative to untreated control; format: cell-based; conditions: HEK-293T
[9] = molecular target: T6, Muscarinic acetylcholine receptor M4 (Homo sapiens); experiment: Antagonist activity at human M4 receptor expressed in HEK293T cells assessed as inhibition of carbachol-induced response by BRET based Gi protein activation assay relative to untreated control; conditions: HEK-293T
[10] = molecular target: T1, Muscarinic acetylcholine receptor M1; experiment: Agonist activity at human M1 receptor expressed in HEK293T cells by BRET based Gq protein activation assay; format: cell-based, HEK-293T
[11] = molecular target: T2, Muscarinic acetylcholine receptor M4; experiment: Antagonist activity at human M4 receptor expressed in HEK293T cells assessed as inhibition of carbachol-induced response by beta-arrestin engagement assay; format: cell-based, HEK-293T
[12] = molecular target: T2, Muscarinic acetylcholine receptor M4; experiment: Antagonist activity at human M4 receptor expressed in HEK293T cells assessed as inhibition of carbachol-induced response by BRET based Gq protein engagement assay; format: cell-based, HEK-293T
[13] = molecular target: T6, Muscarinic acetylcholine receptor M4 (Homo sapiens); experiment: Antagonist activity at human M4 receptor expressed in HEK293T cells assessed as inhibition of carbachol-induced response by BRET based Gq protein engagement assay relative to untreated control; format: cell-based; conditions: HEK-293T
[14] = molecular target: T6, Muscarinic acetylcholine receptor M4 (Homo sapiens); experiment: Agonist activity at human M4 receptor expressed in HEK293T cells by BRET based Gq protein engagement assay relative to carbachol; format: cell-based; conditions: HEK-293T
[15] = molecular target: T1, Muscarinic acetylcholine receptor M1; experiment: Positive modulatory activity at human M1 receptor expressed in HEK293T cells assessed as effect on carbachol-induced response by BRET based Gq protein activation assay; format: cell-based, HEK-293T
[16] = molecular target: T2, Muscarinic acetylcholine receptor M4
[17] = molecular target: T1, Muscarinic acetylcholine receptor M1; experiment: Positive modulatory activity at human M1 receptor expressed in HEK293T cells assessed as effect on carbachol-induced response by BRET based Gq protein engagement assay; format: cell-based, HEK-293T
[18] = molecular target: T5, Muscarinic acetylcholine receptor M1 (Homo sapiens); experiment: Agonist activity at human M1 receptor expressed in HEK293T cells by BRET based Gq protein engagement assay relative carbachol; format: cell-based; conditions: HEK-293T
[19] = molecular target: T6, Muscarinic acetylcholine receptor M4 (Homo sapiens); experiment: Agonist activity at human M4 receptor expressed in HEK293T cells by BRET based Gi protein activation assay relative to carbachol; conditions: HEK-293T
[20] = molecular target: T1, Muscarinic acetylcholine receptor M1; experiment: Agonist activity at human M1 receptor expressed in HEK293T cells by BRET based Gq protein engagement assay
[21] = molecular target: T1, Muscarinic acetylcholine receptor M1
[22] = molecular target: T5, Muscarinic acetylcholine receptor M1 (Homo sapiens); experiment: Agonist activity at human M1 receptor expressed in HEK293T cells by BRET based Gq protein activation assay relative to carbachol; format: cell-based; conditions: HEK-293T
[23] = molecular target: T1, Muscarinic acetylcholine receptor M1; format: cell-based, HEK-293T
[24] = molecular target: T1, Muscarinic acetylcholine receptor M1; format: cell-based, HEK-293T; remark: listed apart in the source
[25] = molecular target: T2, Muscarinic acetylcholine receptor M4; experiment: Agonist activity at human M4 receptor expressed in HEK293T cells by BRET based Gq protein activation assay
[26] = molecular target: T1, Muscarinic acetylcholine receptor M1; experiment: Agonist activity at human M1 receptor expressed in HEK293T cells by BRET based beta-arrestin engagement assay
[27] = molecular target: T5, Muscarinic acetylcholine receptor M1 (Homo sapiens); experiment: Agonist activity at human M1 receptor expressed in HEK293T cells by BRET based beta-arrestin engagement assay relative to carbachol; format: cell-based; conditions: HEK-293T

Sequence of Muscarinic acetylcholine receptor M3 (P20309 whole entry): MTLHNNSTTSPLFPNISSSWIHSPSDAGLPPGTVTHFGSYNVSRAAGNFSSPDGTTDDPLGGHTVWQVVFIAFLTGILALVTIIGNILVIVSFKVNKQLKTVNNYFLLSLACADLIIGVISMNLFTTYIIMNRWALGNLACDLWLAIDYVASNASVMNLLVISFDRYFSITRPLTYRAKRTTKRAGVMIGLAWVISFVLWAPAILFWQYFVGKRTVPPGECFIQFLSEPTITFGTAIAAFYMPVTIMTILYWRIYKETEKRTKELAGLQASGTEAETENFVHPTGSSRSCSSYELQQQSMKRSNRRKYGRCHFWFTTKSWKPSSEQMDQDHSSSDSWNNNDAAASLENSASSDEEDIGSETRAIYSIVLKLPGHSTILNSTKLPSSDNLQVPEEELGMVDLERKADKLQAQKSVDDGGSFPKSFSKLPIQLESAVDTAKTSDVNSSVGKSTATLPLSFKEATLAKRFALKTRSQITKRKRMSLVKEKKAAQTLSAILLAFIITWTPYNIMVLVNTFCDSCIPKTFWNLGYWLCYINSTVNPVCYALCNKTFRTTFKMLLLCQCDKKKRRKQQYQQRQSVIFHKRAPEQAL

Structure (SMILES) | Ki [1] [nM] | Ki [2] [nM] | Ki [3] [nM] | Ki [4] [nM] | Ki [5] [nM] | Imax [7] [%] | Imax [9] [%] | Imax [13] [%] | further results
CN1CCC=C(c2nsnc2OCCCCCCCCCOc2nsnc2C2=CCCN(C)C2)C1 | 2.88 | 1.66 | 0.776 | 3.98 | 3.16 |  |  |  | 
O=C1CCc2ccccc2N1CCCN1CCC(CCCCCCCO)CC1 | 631 | 355 | 389 | 3090 | 209 | 93 | 54 | < 100 | Emax [6]: 44%; Emax [8]: 21%; EC50 [10]: 100 nM; IC50 [11]: 794 nM; IC50 [12]: 1480 nM; Emax [14]: < 0%; EC50 [15]: 85.1 nM; IC50 [16]: 589 nM; EC50 [17]: 69.2 nM; Emax [18]: 76%; Emax [19]: < 0%; EC50 [20]: 229 nM; IC50 [21]: 1150 nM; Emax [22]: 73%
CN1CCN(CC(=O)N2c3ccccc3C(=O)Nc3cccnc32)CC1 |  |  |  |  |  | 67 | < 100 | < 100 | 
CN1CCC=C(c2nsnc2OCCCC2CCN(CCCN3C(=O)CCc4ccccc43)CC2)C1 | 93.3 | 77.6 | 26.3 | 102 | 66.1 |  |  |  | 
CN1[C@@H]2C[C@@H](OC(=O)[C@H](CO)c3ccccc3)C[C@H]1[C@@H]1O[C@@H]12 |  |  |  |  |  | 77 | < 100 | < 100 | 
CN1CCC=C(c2nsnc2OCCCCCCCCCCCCCC2CCN(CCCN3C(=O)CCc4ccccc43)CC2)C1 | 44.7 | 44.7 | 14.5 | 30.9 | 85.1 |  |  |  | 
O=C1CCc2ccccc2N1CCCN1CCC(CCCO)CC1 | 11700 | 2510 | 589 | 14500 | 3240 |  |  |  | 
O=C1CCc2ccccc2N1CCCN1CCC(CCCCCO)CC1 | 1910 | 468 | 447 | 4570 | 603 | < 100 | 38 | 72 | EC50 [10]: 204 nM; IC50 [11]: 1620 nM; IC50 [12]: 12300 nM; IC50 [16]: 3310 nM; Emax [18]: 58%; IC50 [23]: 10000 nM; Emax [19]: 20%; IC50 [24]: 26300 nM; EC50 [25]: 2000 nM; EC50 [20]: 112 nM; IC50 [21]: 28.8 nM; Emax [22]: 53%
O=C1CCc2ccccc2N1CCCN1CCC(CCCCCCCCCCCCCO)CC1 | 339 | 186 | 95.5 | 339 | 479 |  |  |  | 
CN1CCC=C(c2nsnc2OCCCCCCCCCC2CCN(CCCN3C(=O)CCc4ccccc43)CC2)C1 | 1.1 | 1.02 | 1.07 | 2.95 | 1.7 | < 100 |  | 63 | EC50 [10]: 871 nM; IC50 [11]: 95500 nM; IC50 [12]: 2450 nM; Emax [14]: < 0%; Emax [18]: < 0%; IC50 [23]: 148000 nM; Emax [19]: > 100%; EC50 [26]: 61700 nM; IC50 [24]: 14100 nM; Emax [27]: 81%; EC50 [25]: 66100 nM; Emax [22]: 31%
O=C1CCc2ccccc2N1CCCN1CCC(CCCCCCCCCC2CCN(CCCN3C(=O)CCc4ccccc43)CC2)CC1 | 57.5 | 29.5 | 32.4 | 49 | 79.4 |  |  |  | 
CN1CCC=C(c2nsnc2OCCCCCCCCCCCC2CCN(CCCN3C(=O)CCc4ccccc43)CC2)C1 | 10 | 11 | 6.61 | 8.71 | 89.1 |  |  |  | 
O=C1CCc2ccccc2N1CCCN1CCC(CCCCCCCCCO)CC1 | 200 | 282 | 155 | 851 | 214 | 90 | < 100 | 92 | EC50 [10]: 295 nM; IC50 [11]: 813 nM; IC50 [12]: 589 nM; Emax [14]: < 0%; IC50 [16]: 3630 nM; Emax [18]: < 0%; IC50 [23]: 19500 nM; Emax [19]: < 0%; EC50 [26]: 245000 nM; IC50 [24]: 10000 nM; Emax [27]: 50%; IC50 [21]: 490 nM; Emax [22]: 22%
O=C1CCc2ccccc2N1CCCN1CCC(CCCCCCCCCCCO)CC1 | 575 | 123 | 112 | 347 | 417 |  |  |  | 
